The nature of the data set: water solubility of materials added to electron-injection buffer region. Format: physicochemical. The source says:
The table below lists the number of hydrophilic hpp groups, the number of hydrophobic tert-butyl groups, and water solubility of the materials added to the electron-injection buffer regions 914 in the light-emitting devices 7A to 7K.

Broadly, the solubility is the concentration that dissolves in the medium under given conditions. A high value points to much dissolved substance.

Structures are written as SMILES. Converted amounts (≈) assume the structure as drawn.

In the case of `CC(C)(C)c1ccc2c(c1)C1(c3cc(N4CCCN5CCCN=C54)ccc3-c3ccc(N4CCCN5CCCN=C54)cc31)c1cc(C(C)(C)C)ccc1-2` [2′,7′tBu-2,7hpp2SF, 1,1′-(2′,7′-di-tert-butyl-9,9′-spirobi[9H-fluorene]-2,7-diyl)bis(1,3,4,6,7,8-hexahydro-2H-pyrimido[1,2-a]pyrimidine)], the solubility lay within 58 to 62 µg/mL (≈ 82.5 to 88.2 µM).

Values taken from patent US12707803B2, “Light-emitting device” (Semiconductor Energy Laboratory Co., Ltd., priority 2022, dated 2026).
